Earlier results, collected in patent US7022724B2, “Cognition enhancing derivatives of isoxazole triazoloindane GABA-A α5 receptor subunit ligands” (Merck Sharp & Dohme Ltd., priority 2001, dated 2006).

Columns and labels:
[1] = reported by McNamara and Skelton, Psychobiology 21:101–108
[2] = background statement

## COC(=O)c1cc2c(cn1)[nH]c1ccccc12 [β-CCM]
[1]
  spatial learning in the Morris watermaze: enhanced spatial learning
[2]
  proconvulsant effect: proconvulsant
